Results from US10857105B2, “Compounds and compositions for intracellular delivery of therapeutic agents” (ModernaTX, Inc., priority 2017, dated 2020).

Tests used:
[1] = Encapsulation efficiency of RNA in nanoparticle compositions (RIBOGREEN assay); format: physicochemical; conditions: for % EE: compositions for subcutaneous administration
How it was run: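 Lipid nanoparticles (ionisable lipid:DSPC:cholesterol:PEG-DMG 50:10:38.5:1.5 mol %) carrying N1-methylpseudouridine luciferase or hEPO mRNA diluted to about 5 μg/mL in TE, pH 7.5, with or without 2% Triton X-100, 15 min at 37° C. RiboGreen fluorescence (ex ~480, em ~520 nm) blank-subtracted; free RNA = intact/disrupted signal.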

[2] = Residual lipid levels in rat liver and spleen (UPLC-MS); format: in vivo; conditions: for % Lipid Remaining in liver, 48 h, 2 mpk: assuming 300 g rat and 15 g liver
Experimental: At 48 h liver tissue was harvested for lipid quantification. To pre-weighed tissues, Milli-Q water was added (900 μL water per 100 mg tissue). Tissues were homogenized using an Omni probe homogenizer until uniform. 50 μL of samples and matrix calibration standards were aliquoted into a 96-well plate. 50 μL of blank matrix for matrix blanks and control blanks were aliquoted. 400 μL IS spiking solution were manually added to all samples except matrix blanks. 400 μL of 50:50 ACN:IPA were manually added to matrix-blanks. The plate was covered and the samples vortexed and centrifuged for 5 minutes at >3000 rpm. 200 μL of the samples were transferred into a clean 96-well plate for analysis. Samples were analyzed on a Waters Acquity UPLC using a Higgins Analytical Clipeus C8 column ([…], 30×2.1 mm) and a gradient of either 70-95% or 60-95% (Mobile Phase A: 5 mM ammonium formate in 50:50:1 H2O:MeOH:formic acid; Mobile Phase B: 5 mM ammonium formate in 100:1 MeOH:formic acid) over 1.3 min at […] (column temperature 55° C.). Detection was based on electrospray ionization (ESI) in positive mode using a Sciex API5500 Mass Spectrometer.
The expression of hEPO in rats intravenously administered a nanoparticle composition at a dose of 0.2 mpk or 2.0 mpk was measured at 6 hours. Table 16 summarize the ratio of hEPO expression levels using various nanoparticle compositions as compared to the hEPO expression level using MC3 formulation and the lipid levels in the liver measured 48 hours after administration, as described above. Tables 17 and 18 summarize the lipid levels in the liver and spleen measured 48 hours after administration of Compounds 28, 33, 53, and 54. Liver and spleen levels represent the average values calculated for 3 rats in each group. As is shown in Tables 17 and 18, less than 10% of Compounds 28, 33, 53, and 54 remained in the liver after 48 hours, while greater than 60% of MC3 remained.
Table 19A summarizes the hEPO expression, IP-10 induction, liver and spleen levels, and alanine aminotransferase (ALT) and aspartate aminotransferase (AST) measured upon intravenous administration of formulations including Compounds 48, 49, and 50 to rat at 0.2 and 2 mpk and hEPO mRNA. hEPO concentrations were measured 6 hours after administration, while cytokine induction and liver and spleen levels were measured 48 hours after administration. hEPO and IP-10 concentrations are presented in pg/ml, while liver levels are provided in ng/g. ALT and AST levels are presented in international units.
The expression of hEPO and lipid levels in the liver and spleen in rats intravenously administered a nanoparticle composition at a dose of 0.2 mpk was measured at various time points. Compounds 18 and 25 were selected for comparison with MC3. Lipids were formulated according to the standard MC3 formulation described above. Rats were administered intravenously a single 0.2 mpk dose and expression monitored at 0.25, 0.5, 1, 2, 4, 8, 24, and 48 hours after administration.

[3] = Table 1A, lipid:DSPC:cholesterol:PEG-DMG 50:10:38.5:1.5 mol %
[4] = Table 1B, formulated with hEPO mRNA

| Molecule | EE [1, 3] | % Lipid Remaining in liver, 48 h, 2 mpk ([2]; rats, 48 h) | EE [1, 4] | other results |
| --- | --- | --- | --- | --- |
| CCCCCCCCCN(CCO)CCCCCCCC(=O)OC(CCCCCCCC)CCCCCCCC [Compound 3, Heptadecan-9-yl 8-((2-hydroxyethyl)(nonyl)amino)octanoate] | 92.25% | 14% | – | – |
| CCCCCCCCCOC(=O)CCCCCCCN(CCO)CCCCCCCC(=O)OC(CCCCCCCC)CCCCCCCC [Compound 18, Heptadecan-9-yl 8-((2-hydroxyethyl)(8-(nonyloxy)-8-oxooctyl)amino)octanoate] | – | 0.018% | 96.95% | – |
| CCCCCC/C=C\COC(=O)CCCCCCCN(CCO)CCCCCCCC(=O)OC(CCCCCCCC)CCCCCCCC [Compound 24, Heptadecan-9-yl (Z)-8-((2-hydroxyethyl) (8-(non-2-en-1-yloxy)-8-oxooctyl)amino)octanoate] | – | 0.016% | – | – |
| CCCCCCCCCCCOC(=O)CCCCCN(CCO)CCCCCCCC(=O)OC(CCCCCCCC)CCCCCCCC [Compound 25, Heptadecan-9-yl 8-((2-hydroxyethyl)(6-oxo-6-(undecyloxy)hexyl)amino)octanoate] | 95.80% | 1.32% | 97.92% | – |
| CCCCCCCCCOC(=O)CCCN(CCO)CCCCCCCC(=O)OC(CCCCCCCC)CCCCCCCC [Compound 26, Heptadecan-9-yl 8-((2-hydroxyethyl)(4-(nonyloxy)-4-oxobutyl)amino) octanoate] | – | 20% | – | – |
| CCCCCCCCCOC(=O)CCCCCCCN(CCO)CCCCCCCOC(=O)C(CCCCCCCC)CCCCCCCC [Compound 30, 7-((2-Hydroxyethyl)(8-(nonyloxy)-8-oxooctyl)amino)heptyl 2-octyldecanoate] | 95.69% | <0.01% | 96.32% | – |
| CCCCCCCCC(C)OC(=O)CCCCCCCN(CCO)CCCCCCCC(=O)OC(CCCCCCCC)CCCCCCCC (stereo not drawn) [Compound 48, decan-2-yl 8-((8-(heptadecan-9-yloxy)-8-oxooctyl)(2-hydroxyethyl)amino)octanoate] | 96.55% | 7.22% | – | – |
| CCCCCC=CCC=CCCCCCCCCC(CCCCCCCCC=CCC=CCCCCC)OC(=O)CCCN(C)C (stereo not drawn) [MC3, heptatriaconta-6,9,28,31-tetraen-19-yl 4-(dimethylamino)butanoate, reference compound] | 97.3% | 87% | 99.01% | % EE ([1]; Table 1C): 98.2%; % EE ([1]; Table 1D, # formulated with hEPO mRNA): 98.7%; % EE ([1]; Table 1E): 98%; EE ([1]; lipid:DSPC:Chol:PEG-DMG (50:10:38.5:1.5), hEPO mRNA): 97.22%; EE ([1]; nanoparticle composition with hEPO mRNA (Table 30)): 91.66%; % dose remaining, liver, 24 h ([2]; Table 19B, liver, 24 h): 44%; % lipid remaining in liver after 48 hours ([2]; liver, 48 hours): 87%; % remaining dose in liver, 48 h ([2]; rats, 48 h): 74%; Lipid remaining in the liver after 48 hours ([2]; rats, intravenous, 0.2 mpk or 2.0 mpk, 48 hours): greater than 60% |
| Nonyl 8-((6-(heptadecan-9-yloxy)-6-oxohexyl)(2-hydroxyethyl)amino) octanoate [Compound 27] | 94.27% | – | – | – |
